From patent US11542471B2, “Method for producing ciliary marginal zone-like structure” (SUMITOMO CHEMICAL COMPANY, LIMITED, priority 2012, dated 2023)

Tested on: cell aggregate containing a retinal tissue (RAX::GFP knock-in human ES cells, derived from KhES-1)
Experiment: Suspension culture of a human ES cell-derived cell aggregate containing retinal tissue in serum-free medium with a substance acting on the Wnt signal pathway; cryosection immunostaining
Type: cell-based
Details: 3 μM CHIR99021, serum-free medium, 3 days from day 18 of suspension culture
Protocol: The “proportion of Chx10 positive cells” in a retinal tissue contained in a cell aggregate produced as mentioned above can be examined by, for example, the following method. • (1) First, a cryosection of “a cell aggregate comprising a retinal tissue” is prepared. • (2) Then, immunostaining of Rax protein or, when a gene recombinant cell obtained by altering a Rax gene expressing cell to express a fluorescence protein such as GFP is used, the expression of the aforementioned fluorescence protein, is observed using a fluorescence microscope and so on, whereby a retinal tissue region expressing Rax gene is specified. • (3) Using the same section as the cryosection wherein the retinal tissue region expressing Rax gene has been specified or an adjacent section as a sample, the nucleus is stained with a nuclear staining reagent such as Dapi. Then, the number of stained nuclei in the above-specified retinal tissue region expressing Rax gene is counted, whereby the number of the cells in the retinal tissue region is measured. • (4) Using the same section as the cryosection wherein the retinal tissue region expressing Rax gene has been specified or an adjacent section as a sample, Chx10 protein is immunostained. […]

SMILES: Cc1c[nH]c(-c2cnc(NCCNc3ccc(C#N)cn3)nc2-c2ccc(Cl)cc2Cl)n1 [CHIR99021]
- appearance of RPE65 gene expressing cell in the cell aggregate: did not appear
- proportion of Chx10 positive cells in the retinal tissue (about 40% before addition): about 3%
